Reference: patent publication US10770169B2, “Method of providing a treatment to a subject based on a dynamic pathway map” (THE REGENTS OF THE UNIVERSITY OF CALIFORNIA, priority 2010, dated 2020)
Entries after “also recorded” stand apart in the source; their conditions may differ.

Legend:
[1] = tested on: panel of 55 breast cancer cell lines; experiment: Cell growth inhibition assay (Cell Titer Glo, 72 h, 9 doses; GI50, TGI, LC50); format: cell-based, human; details: value is the negative log10 of mol/L
[2] = tested on: luminal, basal, claudin-low and ERBB2AMP breast cancer cell lines; experiment: Associations of clinically relevant subtypes and response (non-parametric ANOVA or t-test on GI50 ranks); format: cell-based, human
In short: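 Significance was set at FDR p<0.20 after combining p-values across three test sets. Subtype–response associations came from rank-based non-parametric ANOVA or t-tests on GI50. For three-class comparisons, post-hoc tests of each group against the rest identified the most sensitive group, with FDR correction.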

O=c1[nH]c2ccccc2n1C1CCN(Cc2ccc(-c3nc4cc5[nH]cnc5cc4nc3-c3ccccc3)cc2)CC1 [Sigma AKT1-2 inhibitor]
GI50 ([1]; AU565 cell line, censored GI50 values): 5.61 | GI50 ([1]; BT20 cell line, censored GI50 values): 5.00 | GI50 ([1]; BT474 cell line, censored GI50 values): 6.08 | GI50 ([1]; BT483 cell line, censored GI50 values): 6.08 | GI50 ([1]; CAMA1 cell line, censored GI50 values): 5.59 | GI50 ([1]; HCC38 cell line, censored GI50 values): 4.98 | GI50 ([1]; HCC70 cell line, censored GI50 values): 5.74 | GI50 ([1]; HCC1143 cell line, censored GI50 values): 4.87 | GI50 ([1]; HCC1187 cell line, censored GI50 values): 5.47 | GI50 ([1]; HCC1419 cell line, censored GI50 values): 6.03 | GI50 ([1]; HCC1428 cell line, censored GI50 values): 5.35 | GI50 ([1]; HCC1500 cell line, censored GI50 values): 4.89 | GI50 ([1]; HCC1806 cell line, censored GI50 values): 5.05 | GI50 ([1]; HCC1937 cell line, censored GI50 values): 5.00 | GI50 ([1]; HCC1954 cell line, censored GI50 values): 5.08 | GI50 ([1]; HCC2185 cell line, censored GI50 values): 5.75 | GI50 ([1]; HCC3153 cell line, censored GI50 values): 4.99 | GI50 ([1]; LY2 cell line, censored GI50 values): 5.77 | GI50 ([1]; MCF7 cell line, censored GI50 values): 5.78 | GI50 ([1]; MDAMB134VI cell line, censored GI50 values): 5.02 | GI50 ([1]; MDAMB175VII cell line, censored GI50 values): 5.51 | GI50 ([1]; MDAMB361 cell line, censored GI50 values): 6.05 | GI50 ([1]; MDAMB415 cell line, censored GI50 values): 4.95 | GI50 ([1]; MDAMB436 cell line, censored GI50 values): 4.47 | GI50 ([1]; MDAMB453 cell line, censored GI50 values): 5.73 | GI50 ([1]; MDAMB468 cell line, censored GI50 values): 5.01 | GI50 ([1]; SKBR3 cell line, censored GI50 values): 5.68 | GI50 ([1]; SUM52PE cell line, censored GI50 values): 5.81 | GI50 ([1]; SUM149PT cell line, censored GI50 values): 5.03 | GI50 ([1]; SUM159PT cell line, censored GI50 values): 5.17 | GI50 ([1]; SUM185PE cell line, censored GI50 values): 5.95 | GI50 ([1]; SUM225CWN cell line, censored GI50 values): 6.05 | GI50 ([1]; SUM1315MO2 cell line, censored GI50 values): 5.33 | GI50 ([1]; T47D cell line, censored GI50 values): 5.78 | GI50 ([1]; UACC812 cell line, censored GI50 values): 5.53 | GI50 ([1]; ZR75B cell line, censored GI50 values): 5.93 | GI50 ([1]; ZR751 cell line, censored GI50 values): 5.94 | GI50 ([1]; cell line AU565): 5.61 | GI50 ([1]; cell line BT20): 5.00 | GI50 ([1]; cell line BT474): 6.08 | GI50 ([1]; cell line BT483): 6.08 | GI50 ([1]; cell line CAMA1): 5.59 | GI50 ([1]; cell line HCC38): 4.98 | GI50 ([1]; cell line HCC70): 5.74 | GI50 ([1]; cell line HCC1143): 4.87 | GI50 ([1]; cell line HCC1187): 5.47 | GI50 ([1]; cell line HCC1419): 6.03 | GI50 ([1]; cell line HCC1428): 5.35 | GI50 ([1]; cell line HCC1500): 4.89 | GI50 ([1]; cell line HCC1806): 5.05 | GI50 ([1]; cell line HCC1937): 5.00 | GI50 ([1]; cell line HCC1954): 5.08 | GI50 ([1]; cell line HCC2185): 5.75 | GI50 ([1]; cell line HCC3153): 4.99 | GI50 ([1]; cell line LY2): 5.77 | GI50 ([1]; cell line MCF7): 5.78 | GI50 ([1]; cell line MDAMB134V): 5.02 | GI50 ([1]; cell line MDAMB175V): 5.51 | GI50 ([1]; cell line MDAMB361): 6.05 | GI50 ([1]; cell line MDAMB415): 4.95 | GI50 ([1]; cell line MDAMB436): 4.47 | GI50 ([1]; cell line MDAMB453): 5.73 | GI50 ([1]; cell line MDAMB468): 5.01 | GI50 ([1]; cell line SKBR3): 5.68 | GI50 ([1]; cell line SUM52PE): 5.81 | GI50 ([1]; cell line SUM149PT): 5.03 | GI50 ([1]; cell line SUM159PT): 5.17 | GI50 ([1]; cell line SUM185PE): 5.95 | GI50 ([1]; cell line SUM225CWN): 6.05 | GI50 ([1]; cell line SUM1315MO): 5.33 | GI50 ([1]; cell line T47D): 5.78 | GI50 ([1]; cell line UACC812): 5.53 | GI50 ([1]; cell line ZR75B): 5.93 | GI50 ([1]; cell line ZR751): 5.94 | subtype-specific response (sensitivity by transcriptional subtype) ([2]; GI50 across subtypes): highest in luminal and ERBB2^AMP and lower in basal and claudin-low breast cancer cell lines; also recorded: Luminal and ERBB2AMP cell lines preferentially respond | Subtype specificity ([2]; Table 6, most sensitive subtype, FDR p<0.20): Luminal/ERBB2AMP
